Legend:
Sclerotinia sclerotiorum = experiment: Fungicidal efficacy by gassing, sclerotia; format: cell-based; design: Vitality score Nm (over 19 days): scale not given here; Reduction in viability RV / Reduction in vitality score RNm: unit not given here; conditions: for Reduction in viability RV / Reduction in vitality score RNm: compared with the control
Description: These four organisms are the following:
Sclerotinia sclerotiorum: polyphagous fungus which attacks mainly melon crops.
• Sclerotinia sclerotiorum: sclerotia • Sclerotium rolfsii: sclerotia • Rhizoctonia solani: colonized barley grains (mycelium and sclerotia) • Phytophthora cactorum: colonized millet grains (mycelium, sporangia and oospores) Preparation of the Fungi (24 h Before the Gassing Operation) 1. Preparation of the sclerotia of Sclerotinia sclerotiorum and of Sclerotium rolfsii: The fungi are cultured on malt agar medium until the sclerotia are obtained. The sclerotia are collected in a sterile manner and stored dry in empty Petri dishes until they are used. The sclerotia used for the trial are over 3 months old and are perfectly dormant. 2. Preparation of Phytophthora cactorum and of Rhizoctonia solani: The millet and barley used for the multiplication of the two fungi are moistened with ultrapure water by immersing for 24 hours. The grains are then slightly drained and then distributed into flasks and autoclaved (3 autoclavings at 110° C. for 20 minutes, 3 times at 24 hour intervals). Fragments of fungal culture are introduced into the flasks which are then incubated at 22° C.±2° C. (white light 18 h) until homogeneous colonization is obtained. The grains are then removed from the flasks in a sterile manner, dried in the sterile stream of a safety cabinet and then stored in the dry state until they are used. Conditions for Gassing and for Desorption
All the batches of fungi to be treated are placed for a few hours at the trial temperature (20° C.). Between 35 and 300 units of fungi or “propagules” (grains or sclerotia) are subjected to gassing during each trial.
Each fumigation chamber comprising to one or more species of fungi corresponds to a glass round-bottomed flask which is impervious to the gas and has a volume of 11 litres. Each round-bottomed flask is equipped with branch connections, one at the bottom for introducing the liquid DMDS, one at the top for collecting the air sample with a syringe.
Before introducing the gas, a partial vacuum (−500 mbar) is established in the round-bottomed flask with a vacuum pump. This makes it possible, on the one hand, to avoid the phenomenon of excess pressure due to the expansibility of DMDS in the round-bottomed flask and, on the other hand, to promote better homogeneity of the air-gas mixture in the first few seconds which follow injection. The DMDS (weighed accurately to the mg) is injected with a syringe, in liquid form, through the bottom branch connection, that is to say under the screen placed at half height of the round-bottomed flask and supporting the batches of fungi. After introducing the product, the internal pressure of the round-bottomed flask is re-established at atmospheric pressure. A magnetic stirrer operates during the entire duration of the treatment in order to properly homogenize the air-gas mixture.
At the end of the gassing, the cover for the round-bottomed flask is removed. One minute after this operation, the batches of fungi gassed are taken out and left in the open air for 15 minutes for desorption of the DMDS. They are then transferred into a Petri dish, the latter remaining open for 5 minutes to allow perfect desorption of the gas.
The mean concentration (C in g/m^3) of DMDS in the fumigation chamber after homogenization of the gas in the chamber air is measured by GC with an FID detector and, taking into account the duration of exposure (T in hours), the product CT (g·h/m^3) is calculated which, in the field of fumigation, is the key parameter to be considered, since the biological efficacy of a gas towards a given pathogenic agent is only effective if the latter was exposed to a certain mean concentration C for a certain duration of exposure T, that is to say to a certain value of the product CT, a value (or dose) which can be reached in different ways: low concentrations and long duration of exposure or conversely. […]

a large number of fungi = conditions: as reported in U.S. Pat. No. 2,917,429; cited from earlier work
[1] = CT 1 050 g·h/m^3 (C 15.91 g/m^3, T 66 h)
[2] = CT 1 402 g·h/m^3 (C 21.24 g/m^3, T 66 h)
[3] = CT 1 450 g·h/m^3 (C 30.96 g/m^3, T 48 h)
[4] = CT 1 899 g·h/m^3 (C 28.77 g/m^3, T 66 h)
[5] = CT 1 981 g·h/m^3 (C 30.02 g/m^3, T 66 h)
[6] = CT 2 460 g·h/m^3 (C 51.25 g/m^3, T 48 h)
[7] = CT 2 471 g·h/m^3 (C 37.44 g/m^3, T 66 h)
[8] = CT 2 837 g·h/m^3 (C 42.98 g/m^3, T 66 h)
[9] = CT 2 974 g·h/m^3 (C 45.06 g/m^3, T 66 h)
[10] = CT 3 169 g·h/m^3 (C 48.02 g/m^3, T 66 h)
[11] = CT 3 467 g·h/m^3 (C 52.53 g/m^3, T 66 h), called an abnormal point
[12] = CT 419 g·h/m^3 (C 17.46 g/m^3, T 24 h)
[13] = CT 625 g·h/m^3 (C 26.04 g/m^3, T 24 h)
[14] = CT 703 g·h/m^3 (C 29.29 g/m^3, T 24 h)
[15] = CT 907 g·h/m^3 (C 37.79 g/m^3, T 24 h)

CSSC [DMDS, dimethyl disulphide]
Viability V (Sclerotinia sclerotiorum; [1]): 41.8% | Vitality score Nm (over 19 days) (Sclerotinia sclerotiorum; [1]): 5.1 | Reduction in viability RV (Sclerotinia sclerotiorum; [1]): 56.1 | Reduction in vitality score RNm (Sclerotinia sclerotiorum; [1]): 63.6 | Viability V (Sclerotinia sclerotiorum; [2]): 46.8% | Vitality score Nm (over 19 days) (Sclerotinia sclerotiorum; [2]): 1.3 | Reduction in viability RV (Sclerotinia sclerotiorum; [2]): 50.9 | Reduction in vitality score RNm (Sclerotinia sclerotiorum; [2]): 90.6 | Viability V (Sclerotinia sclerotiorum; [3]): 29.8% | Vitality score Nm (over 19 days) (Sclerotinia sclerotiorum; [3]): 1.0 | Reduction in viability RV (Sclerotinia sclerotiorum; [3]): 65.8 | Reduction in vitality score RNm (Sclerotinia sclerotiorum; [3]): 92.1 | Viability V (Sclerotinia sclerotiorum; [4]): 29.6% | Vitality score Nm (over 19 days) (Sclerotinia sclerotiorum; [4]): 3.6 | Reduction in viability RV (Sclerotinia sclerotiorum; [4]): 68.9 | Reduction in vitality score RNm (Sclerotinia sclerotiorum; [4]): 74.8 | Viability V (Sclerotinia sclerotiorum; [5]): 20.3% | Vitality score Nm (over 19 days) (Sclerotinia sclerotiorum; [5]): 2.7 | Reduction in viability RV (Sclerotinia sclerotiorum; [5]): 78.7 | Reduction in vitality score RNm (Sclerotinia sclerotiorum; [5]): 81.2 | Viability V (Sclerotinia sclerotiorum; [6]): 14.6% | Vitality score Nm (over 19 days) (Sclerotinia sclerotiorum; [6]): 0.7 | Reduction in viability RV (Sclerotinia sclerotiorum; [6]): 83.2 | Reduction in vitality score RNm (Sclerotinia sclerotiorum; [6]): 94.9 | Viability V (Sclerotinia sclerotiorum; [7]): 32.9% | Vitality score Nm (over 19 days) (Sclerotinia sclerotiorum; [7]): 4.6 | Reduction in viability RV (Sclerotinia sclerotiorum; [7]): 67.1 | Reduction in vitality score RNm (Sclerotinia sclerotiorum; [7]): 70.5 | Viability V (Sclerotinia sclerotiorum; [8]): 14.1% | Vitality score Nm (over 19 days) (Sclerotinia sclerotiorum; [8]): 1.8 | Reduction in viability RV (Sclerotinia sclerotiorum; [8]): 85.2 | Reduction in vitality score RNm (Sclerotinia sclerotiorum; [8]): 87.5 | Viability V (Sclerotinia sclerotiorum; [9]): 11.2% | Vitality score Nm (over 19 days) (Sclerotinia sclerotiorum; [9]): 1.6 | Reduction in viability RV (Sclerotinia sclerotiorum; [9]): 88.8 | Reduction in vitality score RNm (Sclerotinia sclerotiorum; [9]): 89.9 | Viability V (Sclerotinia sclerotiorum; [10]): 0% | Vitality score Nm (over 19 days) (Sclerotinia sclerotiorum; [10]): 0 | Reduction in viability RV (Sclerotinia sclerotiorum; [10]): 100 | Reduction in vitality score RNm (Sclerotinia sclerotiorum; [10]): 100 | Viability V (Sclerotinia sclerotiorum; [11]): 32.3% | Vitality score Nm (over 19 days) (Sclerotinia sclerotiorum; [11]): 3.3 | Reduction in viability RV (Sclerotinia sclerotiorum; [11]): 67.7 | Reduction in vitality score RNm (Sclerotinia sclerotiorum; [11]): 79.0 | Viability V (Sclerotinia sclerotiorum; [12]): 89.7% | Vitality score Nm (over 19 days) (Sclerotinia sclerotiorum; [12]): 13.3 | Reduction in viability RV (Sclerotinia sclerotiorum; [12]): −3.0 | Reduction in vitality score RNm (Sclerotinia sclerotiorum; [12]): −3.6 | Viability V (Sclerotinia sclerotiorum; [13]): 87.8% | Vitality score Nm (over 19 days) (Sclerotinia sclerotiorum; [13]): 12.8 | Reduction in viability RV (Sclerotinia sclerotiorum; [13]): −0.8 | Reduction in vitality score RNm (Sclerotinia sclerotiorum; [13]): 0.1 | Viability V (Sclerotinia sclerotiorum; [14]): 85.4% | Vitality score Nm (over 19 days) (Sclerotinia sclerotiorum; [14]): 12.6 | Reduction in viability RV (Sclerotinia sclerotiorum; [14]): 2.0 | Reduction in vitality score RNm (Sclerotinia sclerotiorum; [14]): 2.2 | Viability V (Sclerotinia sclerotiorum; [15]): 81.6% | Vitality score Nm (over 19 days) (Sclerotinia sclerotiorum; [15]): 12.0 | Reduction in viability RV (Sclerotinia sclerotiorum; [15]): 6.3 | Reduction in vitality score RNm (Sclerotinia sclerotiorum; [15]): 6.6 | Activity on a large number of fungi (a large number of fungi): zero activity
